Assay [1] concerns the target Human immunodeficiency virus type 1 protease (Human immunodeficiency virus 1) (UniProt Q72874). Put plainly: Maximal inactivation rate of compound on HIV protease.
The target is the same in assay [2]. Put plainly: Half maximal inactivation rate of compound on HIV protease.
The target is the same in assay [3]. Nature of the assay: Maximal inactivation rate of compound on protease of Human immunodeficiency virus-1 (HIV-I) was determined.
The target is the same in assay [4]. Put plainly: Concentration of compound for half maximal inactivation rate on protease of Human immunodeficiency virus-1 (HIV-I) was determined.

From ChEMBL document CHEMBL1153692, “Inactivation of HIV-1 protease by a tripeptidyl epoxide” (Bioorg Med Chem Lett, 1992) come the findings set out here.

Consider `O=[N+]([O-])c1ccc(OCC2CO2)cc1` (centres undefined), for which the K came out at 0.004 min⁻¹ in assay [1] and 11 mM in assay [2].

`CC(C)C[C@@H]1O[C@@H]1[C@H](Cc1ccccc1)NC(=O)C(C)NC(Cc1ccccc1)C(=O)C(=O)OCc1ccccc1` (some centres undefined): the values for the K in assay [3] and in assay [4] were 0.31 min⁻¹ and 20 µM, respectively.
